The target in data set [1] is T1, Histone-lysine N-methyltransferase EHMT2 (Homo sapiens) (UniProt Q96KQ7).
T1 sequence (whole entry): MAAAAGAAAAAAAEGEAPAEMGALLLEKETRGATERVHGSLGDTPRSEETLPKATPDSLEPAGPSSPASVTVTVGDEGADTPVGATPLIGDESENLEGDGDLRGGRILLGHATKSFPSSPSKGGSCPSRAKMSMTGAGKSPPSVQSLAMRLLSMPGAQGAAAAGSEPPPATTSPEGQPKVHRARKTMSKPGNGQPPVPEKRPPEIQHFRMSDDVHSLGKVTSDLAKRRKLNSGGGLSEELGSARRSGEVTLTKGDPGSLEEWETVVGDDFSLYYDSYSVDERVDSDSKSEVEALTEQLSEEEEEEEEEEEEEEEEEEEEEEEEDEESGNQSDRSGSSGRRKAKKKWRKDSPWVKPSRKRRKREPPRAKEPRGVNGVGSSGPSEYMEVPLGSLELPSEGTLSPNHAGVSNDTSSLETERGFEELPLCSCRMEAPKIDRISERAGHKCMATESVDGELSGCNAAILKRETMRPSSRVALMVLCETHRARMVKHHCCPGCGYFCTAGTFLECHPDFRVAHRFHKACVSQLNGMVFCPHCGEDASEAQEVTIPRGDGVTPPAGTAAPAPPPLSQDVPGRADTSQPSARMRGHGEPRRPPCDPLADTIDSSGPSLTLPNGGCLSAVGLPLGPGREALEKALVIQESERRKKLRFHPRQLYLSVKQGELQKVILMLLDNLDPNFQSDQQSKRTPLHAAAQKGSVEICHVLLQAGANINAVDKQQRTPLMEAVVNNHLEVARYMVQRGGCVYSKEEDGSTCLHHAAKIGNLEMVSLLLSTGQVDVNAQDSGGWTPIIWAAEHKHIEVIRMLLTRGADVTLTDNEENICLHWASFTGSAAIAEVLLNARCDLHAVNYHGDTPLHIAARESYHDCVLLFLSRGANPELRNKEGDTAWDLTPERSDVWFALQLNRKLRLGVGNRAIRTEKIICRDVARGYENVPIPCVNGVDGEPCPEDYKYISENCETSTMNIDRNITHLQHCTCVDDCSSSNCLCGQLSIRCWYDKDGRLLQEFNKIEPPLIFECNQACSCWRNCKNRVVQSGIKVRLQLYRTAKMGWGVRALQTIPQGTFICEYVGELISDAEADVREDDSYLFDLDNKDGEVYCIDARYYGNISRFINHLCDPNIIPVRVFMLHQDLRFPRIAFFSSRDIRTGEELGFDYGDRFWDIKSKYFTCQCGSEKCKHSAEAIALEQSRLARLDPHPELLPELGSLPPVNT
The data set is described as follows: Reversible inhibition of N-terminal GST-tagged recombinant human Histone-lysine N-methyltransferase G9a using S-(5'-adenosyl)-L-methionine chloride as substrate assessed as enzyme recovery at 10 fold IC50 preincubated for 30 mins followed by 100 fold dilution in presence of DTT.

Data set [2] has as its target T1, Histone-lysine N-methyltransferase EHMT2 (Homo sapiens). The data set is described as follows: Inhibition of N-terminal GST-tagged recombinant human Histone-lysine N-methyltransferase G9a using S-(5'-adenosyl)-L-methionine chloride as substrate assessed as residual activity at 25 uM after 30 mins; values are per cent of control.
Data set [3] has as its target T2, Histone-lysine N-methyltransferase EHMT2 (Homo sapiens, UniProt Q96KQ7).
T2 sequence (Q96KQ7 whole entry): T1 sequence (whole entry)
Description: Competitive inhibition of N-terminal GST-tagged recombinant human Histone-lysine N-methyltransferase G9a using S-(5'-adenosyl)-L-methionine chloride as substrate preincubated for 30 mins followed by substrate addition measured after 30 mins

For data set [4], the target named is T2, Histone-lysine N-methyltransferase EHMT2. The data set is described as follows: Inhibition of N-terminal GST-tagged recombinant human Histone-lysine N-methyltransferase G9a using S-(5'-adenosyl)-L-methionine chloride as substrate after 30 mins.
Data set [5] concerns the target T1, Histone-lysine N-methyltransferase EHMT2 (Homo sapiens). The data set is described as follows: Inhibition of N-terminal GST-tagged recombinant human Histone-lysine N-methyltransferase G9a using S-(5'-adenosyl)-L-methionine chloride as substrate assessed as nonspecific denaturation of enzyme at 0.05 to 25 uM preincubated for 30 mins in presence of urea and DTT.

Data set [6] is described as follows: Induction of H2O2 generation in HBSS/Phenol Red buffer at 10 to 100 uM preincubated for 15 mins by HRP assay in presence of DTT. To be noted: 0.25 h. Format: physicochemical.
The nature of data set [7]: Inhibition of Neurospora crassa Histone H3-K9 methyltransferase dim-5.

The source made the active and inactive calls. The calls are words filed in the database; no cut-off is given here.

The term residual activity denotes the activity still measured, relative to the control. By IC50 is commonly meant the point on the concentration scale where inhibition reaches its midpoint. As for `O=C1[C@@H]2SS[C@@H](C(=O)N2Cc2ccccc2)N1Cc1ccccc1`, in data set [1], the inhibition entry was “Active”. For the same compound, the residual activity in data set [2] is 19%. Further, the IC50 in data set [3] is 5.11 µM; in data set [4] it was 4.9 µM.
Take `Nc1ncnc2c1ncn2[C@@H]1O[C@H](CSCC[C@H](N)C(=O)O)[C@@H](O)[C@H]1O`: in data set [5], the inhibition result was “inactive”.
Regarding `CN1C(=O)[C@@]23C[C@]4([C@]56C[C@@]78SS[C@@](CO)(C(=O)N7[C@H]5Nc5ccccc56)N(C)C8=O)c5ccccc5N[C@@H]4N2C(=O)[C@]1(CO)SS3` [CHAETOCIN], the inhibition entry in data set [1] and in data set [5] was “Active” each time. In addition, in data set [6], the Activity result was “Not Active”. In data set [2], the residual activity was 8%. For the same compound, the IC50 worked out at 3 µM in data set [7] and 2.6 µM in data set [4].
Turning to `CN1C(=O)[C@@]23C[C@]4([C@]56C[C@@]78S[C@@](CO)(C(=O)N7[C@H]5Nc5ccccc56)N(C)C8=O)c5ccccc5N[C@@H]4N2C(=O)[C@]1(CO)S3`, the residual activity in data set [2] was determined as 36%. The IC50 in data set [4] amounted to 10.6 µM.

(Values after ChEMBL document CHEMBL3124916, “On the histone lysine methyltransferase activity of fungal metabolite chaetocin” (J Med Chem, 2013).)
